Measured values as given in patent US4115385A, “Antibacterial 3-(5-tetrazolyl) penam compounds” (Pfizer Inc., priority 1977, dated 1978).
Values after ≈ are worked out from the molar mass of the structure shown. Read-outs that look alike come from different tables or passages of the source.

Assays:
Staphylococcus aureus [1] = experiment: In vitro minimum inhibitory concentration (MIC) vs. Staph. aureus; type: cell-based; conditions: for MIC: Staphylococcus aureus
Method: The antibacterial penam compounds of the instant invention show activity against a wide variety of gram-positive and gram-negative bacteria. […] The broth is inoculated with the bacterial culture, and with the test antibiotic, and then it is incubated overnight. On the next day, the test is read visually. The minimum inhibitory concentration (MIC) is the lowest concentration of antibiotic which prevents turbidity, i.e., which prevents growth of the microorganism. In vitro activities of several of the penam compounds of the invention are presented later in this specification.
In Table II, the minimum inhibitory concentrations (MIC's) of compounds of formula I, wherein R^2 is hydrogen, against a strain of Streptococcus pyogenes, are reported; and in Table III, minimum inhibitory concentrations of compounds of formula I, wherein R^2 is hydrogen, against a strain of Staphylococcus aureus, are presented. Because of the tautomeric nature of such tetrazole derivatives, referred to hereinbefore,each of the preparations tested also contains some of the corresponding compound of formula II, wherein R^3 is hydrogen.

Staphylococcus aureus [2] = experiment: In vivo protection of mice against systemic infection by Staphylococcus aureus; conditions: multiple dosing
Method: (§1) The antibacterial penam compounds of the instant invention are also active in vivo. In determining such activity, the test antibiotic is administered to infected mice, using a multiple dosing regimen. The severity of the infection varies from about one to about ten times that needed to kill 100% of the mice under the conditions of the test. At the end of the test, the activity of a compound is assessed by counting the number of survivors among the treated animals. Both the subcutaneous (SC) and the oral (PO) dosage routes are used. Results are given in Table I for two of the compounds of the invention. The ability of the compounds to protect mice against systemic infections caused by a lethal intraperitoneal inoculum of Staphylococcus aureus or of Escherichia coli is presented.

Streptococcus pyogenes = experiment: In vitro minimum inhibitory concentration (MIC) vs. Strep. pyogenes; type: cell-based; conditions: Streptococcus pyogenes; Table II; two-fold serial dilution, Brain-Heart Infusion broth, overnight; read-out: MIC vs. Strep. pyogenes
Method in brief: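 Broth inoculated with bacteria and test antibiotic, incubated overnight and read visually; MIC is the lowest concentration preventing turbidity. Test preparations also contain some of the corresponding tetrazole tautomer.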

Escherichia coli = experiment: In vivo protection of mice against systemic infection by Escherichia coli; conditions: multiple dosing
Method: as §1

[3] = Table III, two-fold serial dilution, Brain-Heart Infusion broth, overnight, read-out: MIC vs. Staph. aureus
[4] = Table IV, values marked *, read-out: MIC against Staph. aureus

Row | Structure (SMILES) | MIC (Staphylococcus aureus [1]; [3]) [µg/mL] | other results
1 | Cc1ccc(S(=O)(=O)NC(=O)N[C@@H](C(=O)N[C@@H]2C(=O)N3[C@@H]2SC(C)(C)[C@@H]3c2nn[nH]n2)c2ccccc2)cc1 | 6.25 (≈ 11 µM) | –
2 | CC1(C)S[C@@H]2[C@H](NC(=O)[C@H](N)c3ccc(O)cc3)C(=O)N2[C@H]1c1nnn[nH]1 [D-2-amino-2-(p-hydroxyphenyl)acetyl, 6-(D-2-Amino-2-[4-hydroxyphenyl]acetamido)-2,2-dimethyl-3-(5-tetrazolyl)penam] | – | Percentage Protection S. aureus (Staphylococcus aureus [2]; 6 mg./kg. SC): 50%; Percentage Protection S. aureus (Staphylococcus aureus [2]; 12 mg./kg. SC): 50%; Percentage Protection S. aureus (Staphylococcus aureus [2]; 25 mg./kg. SC): 70%; Percentage Protection S. aureus (Staphylococcus aureus [2]; 50 mg./kg. SC): 80%; MIC (Streptococcus pyogenes): < 0.1 µg/mL; Percentage Protection E. coli (Escherichia coli; 25 mg./kg. SC): 80%; Percentage Protection E. coli (Escherichia coli; 50 mg./kg. SC): 100%; Percentage Protection E. coli (Escherichia coli; 200 mg./kg. PO): 100%
3 | CC1(C)S[C@@H]2[C@H](NC(=O)[C@H](NC(=O)CC(=N)N)c3ccccc3)C(=O)N2[C@H]1c1nn[nH]n1 [D-2-(2-[guanyl]acetamido)-2-phenylacetyl, 6-(D-2-[2-Guanylacetamido]-2-phenylacetamido)-2,2-dimethyl-3-(5-tetrazolyl)penam] | 12.5 (≈ 27.3 µM) | –
4 | CC(C)C(NC(=N)c1ccncc1)C(=O)N[C@@H]1C(=O)N2[C@@H]1SC(C)(C)[C@@H]2c1nnn[nH]1 (stereo partly drawn) | 50 (≈ 113 µM) | –
5 | CC1(C)S[C@@H]2[C@H](NC(=O)[C@H](NC(=O)CNC(=N)c3ccc[nH]3)c3ccccc3)C(=O)N2[C@H]1c1nnn[nH]1 | 50 (≈ 95.7 µM) | –
6 | CC1(C)S[C@@H]2[C@H](NC(=O)CN)C(=O)N2[C@H]1c1nnn[nH]1 [2-aminoacetyl] | 200 (≈ 673 µM) | –
7 | CC1(C)S[C@@H]2[C@H](NC(=O)[C@H](NC(=O)CC3=NCCN3)c3ccccc3)C(=O)N2[C@H]1c1nnn[nH]1 | 3.12 (≈ 6.45 µM) | –
8 | CC1(C)S[C@@H]2[C@H](NC(=O)C(NC(=O)CSc3ccncc3)c3ccccc3)C(=O)N2[C@H]1c1nn[nH]n1 (stereo partly drawn) [6-(2-[2-(4-Pyridylthio)acetamido]-2-phenylacetamido)-2,2-dimethyl-3-(5-tetrazolyl)penam] | 100 (≈ 191 µM) | –
9 | CC1(C)S[C@@H]2[C@H](NC(=O)[C@H](N)Cc3c[nH]c4ccccc34)C(=O)N2[C@H]1c1nnn[nH]1 [D-2-amino-3-(3-indolyl)propionyl] | 6.25 (≈ 14.7 µM) | –
10 | CC1(C)S[C@@H]2[C@H](NC(=O)[C@H](NS(C)(=O)=O)c3ccccc3)C(=O)N2[C@H]1c1nn[nH]n1 [D-2-(methanesulfonamido)-2-phenylacetyl, 6-(D-2-Methanesulfonamido-2-phenylacetamido)-2,2-dimethyl-3-(5-tetrazolyl)penam] | 1.56 (≈ 3.45 µM) | –
11 | CC1(C)S[C@@H]2[C@H](N3C(=O)[C@@H](c4ccc(O)cc4)NC3(C)C)C(=O)N2[C@H]1c1nnn[nH]1 [6-(2,2-Dimethyl-5-oxo-4-[p-hydroxyphenyl]-1-imidazolidinyl)-2,2-dimethyl-3-(5-tetrazolyl)penam] | – | MIC (Staphylococcus aureus [1]; [4]): 0.78 µg/mL (≈ 1.82 µM)
12 | CC1(C)S[C@@H]2[C@H](N3C(=O)[C@@H](c4ccccc4)NC3(C)C)C(=O)N2[C@H]1c1nnn[nH]1 [6-(2,2-Dimethyl-5-oxo-4-phenyl-1-imidazolidinyl)-2,2-dimethyl-3-(5-tetrazolyl)penam] | – | MIC (Staphylococcus aureus [1]; [4]): 1.56 µg/mL (≈ 3.77 µM)
13 | CN(C)C=NCC(=O)N[C@@H](C(=O)NC1C(=O)N2C1SC(C)(C)C2c1nnn[nH]1)c1ccccc1 (stereo partly drawn) [6-(D-2-[2-(dimethylaminoethyleneamino)acetamido]-2-phenylacetamido-2,2-dimethyl-3-(5-tetrazolyl)penam] | – | MIC vs. Staph. aureus (Staphylococcus aureus [1]; Table III, two-fold serial dilution, Brain-Heart Infusion broth, overnight): 6.25 µg/mL (≈ 12.9 µM)
14 | CC1(C)S[C@@H]2[C@H](NC(=O)[C@H](NS(=O)(=O)c3ccc([N+](=O)[O-])cc3)c3ccccc3)C(=O)N2[C@H]1c1nn[nH]n1 | 1.56 (≈ 2.79 µM) | –

Continued, in another order:

Row | MIC (Staphylococcus aureus [1]; [3]) [µg/mL] | Structure (SMILES) | other results
15 | 1.56 (≈ 2.85 µM) | CC1(C)S[C@@H]2[C@H](NC(=O)[C@H](NS(=O)(=O)c3ccc(Cl)cc3)c3ccccc3)C(=O)N2[C@H]1c1nn[nH]n1 | –
16 | 0.78 (≈ 1.88 µM) | CC(=O)N[C@@H](C(=O)N[C@@H]1C(=O)N2[C@@H]1SC(C)(C)[C@@H]2c1nnn[nH]1)c1ccccc1 [D-2-(acetamido)-2-phenylacetyl] | –
17 | 0.78 (≈ 1.48 µM) | CC1(C)S[C@@H]2[C@H](NC(=O)[C@H](NC(=S)NC(=O)c3ccco3)c3ccccc3)C(=O)N2[C@H]1c1nn[nH]n1 | –
18 | < 0.1 | CC1(C)S[C@@H]2[C@H](NC(=O)[C@@H](O)c3ccccc3)C(=O)N2[C@H]1c1nnn[nH]1 [L-2-hydroxy-2-phenylacetyl, 6-(L-2-Hydroxy-2-phenylacetamido)-2,2-dimethyl-3-(5-tetrazolyl)penam] | –
19 | < 0.1 | CC1(C)S[C@@H]2[C@H](NC(=O)[C@H](O)c3ccccc3)C(=O)N2[C@H]1c1nnn[nH]1 [D-2-hydroxy-2-phenylacetyl, 6-(D-2-Hydroxy-2-phenylacetamido)-2,2-dimethyl-3-(5-tetrazolyl)penam] | –
20 | < 0.1 | CC1(C)S[C@@H]2[C@H](NC(=O)[C@H](N)c3ccsc3)C(=O)N2[C@H]1c1nnn[nH]1 [D-2-amino-2-(3-thienyl)acetyl, 6-(D-2-Amino-2-[3-thienyl]acetamido)-2,2-dimethyl-3-(5-tetrazolyl)penam] | Percentage Protection S. aureus (Staphylococcus aureus [2]; 6 mg./kg. SC): 50%; Percentage Protection S. aureus (Staphylococcus aureus [2]; 12 mg./kg. SC): 50%; Percentage Protection S. aureus (Staphylococcus aureus [2]; 25 mg./kg. SC): 60%; Percentage Protection S. aureus (Staphylococcus aureus [2]; 50 mg./kg. SC): 40%; Percentage Protection E. coli (Escherichia coli; 25 mg./kg. SC): 20%; Percentage Protection E. coli (Escherichia coli; 50 mg./kg. SC): 20%; Percentage Protection E. coli (Escherichia coli; 200 mg./kg. PO): 0%
21 | 1.56 (≈ 2.25 µM) | CC1(C)S[C@@H]2[C@H](NC(=O)[C@H](NC(=O)CNC(=O)c3cc(Br)cc(Br)c3)c3ccccc3)C(=O)N2[C@H]1c1nnn[nH]1 | –
22 | 0.78 (≈ 1.63 µM) | CCCS(=O)(=O)N[C@@H](C(=O)N[C@@H]1C(=O)N2[C@@H]1SC(C)(C)[C@@H]2c1nn[nH]n1)c1ccccc1 [D-2-(propanesulfonamido)-2-phenylacetyl] | –
23 | 1.56 (≈ 3.31 µM) | CC(=N)NCC(=O)N[C@@H](C(=O)N[C@@H]1C(=O)N2[C@@H]1SC(C)(C)[C@@H]2c1nnn[nH]1)c1ccccc1 | –
24 | 0.39 (≈ 0.739 µM) | CC1(C)S[C@@H]2[C@H](NC(=O)[C@H](NS(=O)(=O)Cc3ccccc3)c3ccccc3)C(=O)N2[C@H]1c1nn[nH]n1 | –
25 | < 0.1 | COc1ccc([C@@H](N)C(=O)N[C@@H]2C(=O)N3[C@@H]2SC(C)(C)[C@@H]3c2nnn[nH]2)cc1 [D-2-amino-2-(p-methoxyphenyl)acetyl] | –
